In US20060264419A1 (priority 2003, published 2006) one finds IC50 data, which are given here for 29 molecules.

The target of assay [1] is 5-HT2A receptors (Rattus norvegicus, UniProt P14842). Briefly: in-vitro affinity to 5-HT2A receptors, displacement of [3H]ketanserine (Example A1). Format: binding. The following applies: read-out: HT2A IC50. From the text: The 5-HT2A receptors are exposed both to [^3H]ketanserine (a substance which is known for its affinity to the receptor) and also to the test compound. The decrease in the affinity of [^3H]ketanserine to the receptor is an indication of the affinity of the test substance to the 5-HT2A receptor.

In assay [2] the target is T1, 5 HT2C receptor (Homo sapiens, UniProt P28335).
T1 sequence (P28335 33-458): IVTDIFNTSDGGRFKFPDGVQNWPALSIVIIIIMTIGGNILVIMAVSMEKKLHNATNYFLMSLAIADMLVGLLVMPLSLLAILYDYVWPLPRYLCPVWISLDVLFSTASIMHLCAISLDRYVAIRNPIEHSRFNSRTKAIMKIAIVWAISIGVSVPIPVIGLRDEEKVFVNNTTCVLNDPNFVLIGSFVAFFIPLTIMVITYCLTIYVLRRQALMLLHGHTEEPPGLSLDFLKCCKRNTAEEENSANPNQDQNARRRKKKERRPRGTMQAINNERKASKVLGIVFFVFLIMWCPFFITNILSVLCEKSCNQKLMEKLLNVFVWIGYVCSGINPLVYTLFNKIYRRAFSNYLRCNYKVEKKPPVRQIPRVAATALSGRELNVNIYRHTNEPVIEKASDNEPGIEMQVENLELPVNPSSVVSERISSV
Briefly: affinity to the 5 HT2C receptor. The class given is binding.

Chain of 5-HT2A receptors (P14842 whole entry): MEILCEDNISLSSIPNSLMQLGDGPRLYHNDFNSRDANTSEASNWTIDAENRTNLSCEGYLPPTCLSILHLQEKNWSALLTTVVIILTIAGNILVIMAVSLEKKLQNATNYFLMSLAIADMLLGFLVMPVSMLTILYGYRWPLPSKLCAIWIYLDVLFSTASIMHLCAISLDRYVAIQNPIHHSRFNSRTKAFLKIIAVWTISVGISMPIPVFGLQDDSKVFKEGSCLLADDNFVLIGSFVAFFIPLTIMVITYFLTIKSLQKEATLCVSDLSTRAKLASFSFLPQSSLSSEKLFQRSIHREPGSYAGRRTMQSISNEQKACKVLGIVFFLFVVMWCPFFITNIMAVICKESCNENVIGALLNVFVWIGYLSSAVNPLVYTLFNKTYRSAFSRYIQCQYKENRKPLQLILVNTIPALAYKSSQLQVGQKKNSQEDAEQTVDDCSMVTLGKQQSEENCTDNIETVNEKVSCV

For `CC(C)c1ccc(-n2ncc(CN3CCN(C)CC3)c2-c2ccccc2F)cc1` [Example 983, 1-[5-(2-Fluorophenyl)-1-(4-isopropylphenyl)-1H-pyrazol-4-ylmethyl]-4-methylpiperazine], the IC50 in assay [1] came to 120 nM; in assay [2], 520 nM.

For `CN1CCN(Cc2cnn(-c3ccc(-n4cccc4)cc3)c2-c2ccccc2F)CC1` [Example 909, 1-[5-(2-Fluorophenyl)-1-(4-pyrrol-1-ylphenyl)-1H-pyrazol-4-ylmethyl]-4-methylpiperazine], the IC50 in assay [1] was 17 nM; in assay [2], 210 nM.

Turning to `NCCNCc1cnn(-c2ccc(-c3ccccc3)cc2)c1-c1ccccc1F` [Example 894, N-[1-Biphenyl-4-yl-5-(2-fluorophenyl)-1H-pyrazol-4-ylmethyl]ethane-1,2-diamine], the IC50 in assay [1] is 6.5 nM; in assay [2], 450 nM.

`CC(C)(C)OC(=O)N1CCN(Cc2cnn(-c3ccc(-c4ccccc4)cc3)c2-c2ccccc2F)CC1` [Example 971, tert-Butyl 4-[1-biphenyl-4-yl-5-(2-fluoro-phenyl)-1H-pyrazol-4-ylmethyl]piperazine-1-carboxylate]: the results for the IC50 in assay [1] and in assay [2] were 82 nM and 1000 nM, respectively.

As to `Fc1ccccc1-c1c(CNCc2nc3ccccc3[nH]2)cnn1-c1ccc(-c2ccccc2)cc1` [Example 969, (1H-Benzoimidazol-2-ylmethyl)-[1-biphenyl-4-yl-5-(2-fluorophenyl)-1H-pyrazol-4-ylmethyl]-amine], the IC50 in assay [1] stood at 76 nM; in assay [2], 1000 nM.

Take `CCN1CCN(Cc2cnn(-c3ccc(-c4ccccc4)cc3)c2-c2ccccc2F)CC1` [Example 927, 1-[1-Biphenyl-4-yl-5-(2-fluoro-phenyl)-1H-pyrazol-4-ylmethyl]-4-ethylpiperazine]: the IC50 came out at 28 nM in assay [1] and 1000 nM in assay [2].

In the case of `O=C(c1ccc(F)cc1)C1CCN(Cc2cnn(-c3ccc(-c4ccc(F)cc4)cc3)c2-c2ccccc2Cl)CC1` [Example 1019, 1-{1-{5-(2-Chlorophenyl)-1-(4′-fluoro-biphenyl-4-yl)-1H-pyrazol-4-ylmethyl]piperidin-4-yl}-1-(4-fluorophenyl)methanone], the IC50 was 230 nM in assay [1] and 40 nM in assay [2].

Consider `CN1CCN(Cc2cnn(-c3ccc(-c4ccc5c(c4)OCCO5)cc3)c2-c2ccccc2F)CC1` [Example 901, 1-[1-[4-(2,3-Dihydrobenzo[1,4]dioxin-6-yl)-phenyl]-5-(2-fluorophenyl)-1H-pyrazol-4-yl-methyl]-4-methyl-piperazine], for which the IC50 in assay [1] came out at 13 nM; in assay [2], 870 nM.

Regarding `CN1CCN(Cc2cnn(-c3ccc(-c4ccc(F)cc4)cc3)c2-c2ccccc2Cl)CC1` [Example 965, 1-[5-(2-Chlorophenyl)-1-(4′-fluoro-biphenyl-4-yl)-1H-pyrazol-4-ylmethyl]-4-methylpiperazine], the IC50 in assay [1] is 72 nM; in assay [2], 600 nM.

As for `CN(C)CCN(C)Cc1cnn(-c2ccc(-c3ccc(F)cc3)cc2)c1-c1ccc(Cl)cc1` [Example 1024, N-[5-(4-Chlorophenyl)-1-(4′-fluoro-biphenyl-4-yl)-1H-pyrazol-4-ylmethyl]-N,N′,N′-trimethyl-ethane-1,2-diamine], the IC50 stood at 240 nM in assay [1] and 1000 nM in assay [2].

Take `OCc1cnn(-c2ccc(-c3ccc(F)cc3)cc2)c1-c1ccc(Cl)cc1` [Example 933, [5-(4-Chlorophenyl)-1-(4′-fluoro-biphenyl-4-yl)-1H-pyrazol-4-yl]methanol]: the values for the half-inhibitory concentration (IC50) in assay [1] and in assay [2] were 31 nM and 1000 nM, respectively.

With `CCN1CCCC1CNCc1cnn(-c2ccc(-c3ccccc3)cc2)c1-c1ccccc1F` (stereo not shown) [Example 947, [1-Biphenyl-4-yl-5-(2-fluorophenyl)-1H-pyrazol-4-ylmethyl]-(1-ethyl-pyrrolidin-2-yl-methyl)amine], the 50% inhibitory concentration (IC50) was found to be 46.9 nM in assay [1] and 1000 nM in assay [2].

In the case of `CCN1CCN(Cc2cnn(-c3ccc(-c4ccc(F)cc4)cc3)c2-c2ccccc2Cl)CC1` [Example 975, 1-[5-(2-Chlorophenyl)-1-(4′-fluoro-biphenyl-4-yl)-1H-pyrazol-4-ylmethyl]-4-ethylpiperazine], the figures for the IC50 in assay [1] and in assay [2] were 88 nM and 1000 nM, respectively.

Consider `Cc1ccc(-c2ccc(-n3ncc(CN4CCN(C)CC4)c3-c3ccccc3F)cc2)cc1` [Example 916, 1-[5-(2-Fluorophenyl)-1-(4′-methylbiphenyl-4-yl)-1H-pyrazol-4-ylmethyl]-4-methylpiperazine], for which the IC50 in assay [1] amounted to 22 nM; in assay [2], 960 nM.

Turning to `Fc1ccccc1-c1c(CN2CCCCC2)cnn1-c1ccc(-c2ccccc2)cc1` [Example 931, 1-[1-Biphenyl-4-yl-5-(2-fluorophenyl)-1H-pyrazol-4-ylmethyl]piperidine], the IC50 in assay [1] stood at 30 nM; in assay [2], 1000 nM.

Turning to `c1ccc(-c2ccc(-n3ncc(CNCc4ccccn4)c3-c3ccccc3)cc2)cc1` [Example 918, (1-Biphenyl-4-yl-5-phenyl-1H-pyrazol-4-yl-methyl)pyridin-2-ylmethylamine], the values for the IC50 in assay [1] and in assay [2] were 23 nM and 1000 nM, respectively.

For the molecule `CN1CCC(N(C)Cc2cnn(-c3ccc(-c4ccccc4)cc3)c2-c2ccccc2F)C1` (stereo not shown) [Example 907, [1-Biphenyl-4-yl-5-(2-fluorophenyl)-1H-pyrazol-4-ylmethyl]methyl-(1-methylpyrrolidin-3-yl)amine], the 50% inhibitory concentration (IC50) in assay [1] stood at 16 nM; in assay [2] it was 84 nM.

Regarding `CCN1CCN(CCc2cnn(-c3ccc(-c4ccc(F)cc4)cc3)c2-c2ccccc2F)CC1` [Example 928, 1-Ethyl-4-{2-[1-(4′-fluorobiphenyl-4-yl)-5-(2-fluorophenyl)-1H-pyrazol-4-yl]ethyl}piperazine], the IC50 in assay [1] is 28 nM; in assay [2], 1300 nM.

With `CN1CCN(Cc2cnn(-c3ccc(OC(F)(F)F)cc3)c2-c2ccccc2F)CC1` [Example 1029, 1-[5-(2-Fluorophenyl)-1-(4-trifluoromethoxy-phenyl)-1H-pyrazol-4-ylmethyl]-4-methyl-piperazine], the results for the IC50 in assay [1] and in assay [2] were 270 nM and 490 nM, respectively.

For the molecule `Fc1ccccc1-c1c(CN2CCCC2)cnn1-c1ccc(-c2ccccc2)cc1` [Example 934, 1-Biphenyl-4-yl-5-(2-fluorophenyl)-4-pyrrolidin-1-ylmethyl-1H-pyrazole], the IC50 in assay [1] is 32 nM; in assay [2] it was 1000 nM.

Turning to `O=C1CCCN1CCCNCc1cnn(-c2ccc(-c3ccccc3)cc2)c1-c1ccccc1F` [Example 961, 1-(3-{[1-Biphenyl-4-yl-5-(2-fluoro-phenyl)-1H-pyrazol-4-ylmethyl]amino}propyl)pyrrolidin-2-one], the figures for the IC50 in assay [1] and in assay [2] were 64 nM and 1000 nM, respectively.

As to `CN1CCN(Cc2cnn(-c3ccc(-c4ccc(C#N)cc4)cc3)c2-c2ccccc2F)CC1` [Example 952, 4′-[5-(2-Fluorophenyl)-4-(4-methyl-piperazin-1-ylmethyl)pyrazol-1-yl]biphenyl-4-carbonitrile], the half-inhibitory concentration (IC50) in assay [1] is 53 nM; in assay [2] it was 790 nM.

For `CN(C)CCN(C)Cc1cnn(-c2ccc(-c3ccc(F)cc3)cc2)c1-c1ccccc1Cl` [Example 946, N-[5-(2-chlorophenyl)-1-(4′-fluoro-biphenyl-4-yl)-1H-pyrazol-4-ylmethyl]-N,N′,N′-trimethyl-ethane-1,2-diamine], the IC50 in assay [1] came out at 44 nM; in assay [2], 490 nM.

With `Cn1cccc1CNCc1cnn(-c2ccc(-c3ccccc3)cc2)c1-c1ccccc1` [Example 925, (1-Biphenyl-4-yl-5-phenyl-1H-pyrazol-4-yl-methyl)-(1-methyl-1H-pyrrol-2-ylmethyl)amine], the IC50 in assay [1] was 26 nM; in assay [2], 520 nM.

Consider `Cn1ccnc1CNCc1cnn(-c2ccc(-c3ccccc3)cc2)c1-c1ccccc1` [Example 942, (1-Biphenyl-4-yl-5-phenyl-1H-pyrazol-4-yl-methyl)-(1-methyl-1H-imidazol-2-ylmethyl)-amine], for which the IC50 in assay [1] came out at 39 nM; in assay [2], 1000 nM.

Take `O=C1NCN(c2ccccc2)C12CCN(Cc1cnn(-c3ccc(-c4ccccc4)cc3)c1-c1ccccc1F)CC2` [Example 1051, 8-[1-Biphenyl-4-yl-5-(2-fluorophenyl)-1H-pyrazol-4-ylmethyl]-1-phenyl-1,3,8-triaza-spiro[4.5]decan-4-one]: the IC50 stood at 400 nM in assay [1] and 1000 nM in assay [2].

As to `CN1CCN(Cc2cnn(-c3ccc(-c4ccccc4)cc3)c2-c2cccnc2)CC1` [Example 1035, 1-(1-Biphenyl-4-yl-5-pyridin-3-yl-1H-pyrazol-4-ylmethyl)-4-methylpiperazine], the half-inhibitory concentration (IC50) in assay [1] is 290 nM; in assay [2], 1000 nM.

With `CN1CCN(Cc2cnn(-c3ccc(-c4ccc(F)cc4)cc3)c2-c2ccc(F)cc2)CC1` [Example 923, 1-[1-(4′-Fluorobiphenyl-4-yl)-5-(4-fluoro-phenyl)-1H-pyrazol-4-ylmethyl]-4-methylpiperazine], the IC50 is 25 nM in assay [1] and 750 nM in assay [2].

Consider `Fc1ccccc1-c1c(CCN2CCOCC2)cnn1-c1ccc(-c2ccccc2)cc1` [Example 898, 4-{2-[1-Biphenyl-4-yl-5-(2-fluoro-phenyl)-1H-pyrazol-4-yl]ethyl}morpholine], for which the figures for the IC50 in assay [1] and in assay [2] were 12 nM and 1000 nM, respectively.
